Source: patent US20090232744A1, “Macrolide compositions having improved taste and stability” (priority 2008, published 2009)
≈ marks a conversion by molar mass, not a printed value.

Assays:
[1] = system: Burkholderia cepacia ATCC 17759; experiment: MIC, agar dilution method; format: cell-based; conditions: ATCC17759, Mueller-Hinton agar, aerobic, 16-20 h at 36° C.
From the text: (§1) The formulations prepared according to Examples 11, 12 and 13, were used to evaluate the Minimal Inhibitory Concentration (MIC) required to inhibit the growth of the following organisms: Burkholderia cepacia, Haemophilus influenzae, and Pseudomonas aeruginosa, using the agar dilution method based on DIN 58940 and 58944 according to NCCLS (National Committee on Clinical Laboratory Standards) criteria. […] To determine MIC, Petri dishes containing Mueller-Hinton agar supplemented with agar-agar, or chocolate agar were prepared. Dilutions of the formulations prepared under Examples 11, 12, 13 and 14 were prepared in aqua purificata, resulting in solutions containing 1000 μg drug per ml (with exception of the formulation only containing levofloxacin, where a dilution containing 640 μg/ml was prepared). […] Two agar plates were poured for each test concentration and culture medium. After solidification and drying, the agar plates were inoculated with the test organisms and incubated as described in Table 7. [table] The MIC was given as the lowest concentration of the active substance at which there was no macroscopically visible growth. Minimal, barely visible growth or few small individual colonies were evaluated as inhibition. The MIC readings are generally subject to an error of up to two dilutions. […] For Haemophilus spp., it was defined that a breakpoint ≦4 μg/ml is classified as susceptible.

[2] = system: Haemophilus influenzae ATCC 49247; experiment: MIC, agar dilution method; format: cell-based; conditions: for MIC: ATCC49247, Chocolat agar, microaerophile, 16-20 h at 36° C.
From the text: as §1

[3] = system: Pseudomonas aeruginosa ATCC 9027; experiment: MIC, agar dilution method; format: cell-based; conditions: ATCC9027, Mueller-Hinton agar, aerobic, 16-20 h at 36° C.
From the text: as §1

[4] = cited from earlier work
[5] = after single oral dose administration

MIC [1] | MIC [2] | MIC [3] | SMILES | susceptibility classification [2] | concentration in sputum exceeds the plasma concentration ([4]; after multiple oral doses) | concentration in alveolar macrophages exceeds plasma concentration [4, 5] | concentration in bronchial mucosa exceeds plasma concentration [4, 5]
25 µg/mL (≈ 33.4 µM) | 25 µg/mL (≈ 33.4 µM) | 6.25 µg/mL (≈ 8.34 µM) | CC[C@H]1OC(=O)[C@H](C)[C@@H](O[C@H]2C[C@@](C)(OC)[C@@H](O)[C@H](C)O2)[C@H](C)[C@@H](O[C@@H]2O[C@H](C)C[C@H](N(C)C)[C@H]2O)[C@](C)(O)C[C@@H](C)CN(C)[C@H](C)[C@@H](O)[C@]1(C)O [Azi., azithromycin] | resistant | 67 fold | 170 fold | 29 fold
4 µg/mL (≈ 11.1 µM) | 0.25 µg/mL (≈ 0.692 µM) | 0.5 µg/mL (≈ 1.38 µM) | C[C@H]1COc2c(N3CCN(C)CC3)c(F)cc3c(=O)c(C(=O)O)cn1c23 [Levo., levofloxacin] | – | – | – | –
50 µg/mL (≈ 107 µM) | 50 µg/mL (≈ 107 µM) | 0.781 µg/mL (≈ 1.67 µM) | NC[C@H]1O[C@H](O[C@H]2[C@H](O)[C@@H](O[C@H]3O[C@H](CO)[C@@H](O)[C@H](N)[C@H]3O)[C@H](N)C[C@@H]2N)[C@H](N)C[C@@H]1O [Tobr., tobramycin] | resistant | – | – | –
